# Experimental data taken from patent publication US8962657B2, “Aryl derivatives and uses thereof” (Jacobus Pharmaceutical Company, Inc., priority 2012, dated 2015).
# Read-outs that look alike come from different tables or passages of the source. Marks after values point to notes of the source that are not given here.
# Key:
# [1] = tested on: P. falciparum strain W2 (resistant to chloroquine and pyrimethamine); assay: [3H]-hypoxanthine growth inhibition assay, P. falciparum W2; format: cell-based; settings: Plasmodium falciparum
# Description: (§1) The potential for antimalarial activity against Plasmodium falciparum was determined by measuring the incorporation of tritiated hypoxanthine into parasitized red blood cells.
# (§2) Stock solutions of the test compounds and the reference drug chloroquine (CQ) (Sigma Chemicals C-6628, Lot #059H0919) were prepared in silanized glass vials with AquaSil™ (Pierce, USA) to minimize absorption of the compounds to glassware. All test compounds were dissolved in DMSO (Sigma Cat No. # D8418) to 1 mM concentration, whereas CQ was dissolved in 50% methanol at a concentration of 1.6 mg/ml (base). Stock solutions were stored at −20° C.
# (§3) The P. falciparum laboratory adapted strains utilized in this project (Table 1) were in vitro cultured and routinely maintained in RPMI-1640-LPLF complete medium, which contained low concentrations of para-amino benzoic acid (0.0005 mg/L) and folic acid (0.01 mg/L).
# (§4) The low concentration of folic acid in RPMI-1640-LPLF prevents inhibition of the compound if its activity targets the parasite's folate metabolic pathway. Parasites were cultured in human red blood cells (RBCs) in vitro at 37° C. in special gas mixture (5% O2, 5% CO2 and 90% N2) as described Trager and Jensen (1979 Science 193:673-675).
# (§5) Base cultivation medium consisted of 10.4 g/L RPMI-1640-LPLF powder (Gibco BRL), 5.97 g/L HEPES buffer (MP Biomedicals, USA), 2.0 g/L D-glucose (BDH chemicals, Australia), 0.05 g/L hypoxanthine (Sigma, USA) and 40 mg/L gentamycin (Pfizer, Australia). The pH of the medium was adjusted to 6.9 and the solution was filtered using 0.2 μm pore size (AcroCap, Gelman Science, USA). […] For [^3H]-hypoxanthine inhibition growth assay, RPMI-1640-LPLF complete medium which lacked [^3H]-hypoxanthine ([^3H]-RPMI-1640-LPLF) was used to prevent uptake of hypoxanthine by parasites, as radioactive hypoxanthine uptake is measured as a surrogate marker of growth. […]
# (§6) Red blood cells (RBC) were required for P. falciparum parasites to proliferate in vitro. […] Following the final wash, the haematocrit was measured as the percent of RBC to total culture volume. […]
# [2] = tested on: Plasmodium berghei (KBG-173 strain); assay: Plasmodium berghei assay in vivo (modified Thompson Test), survival of infected mice; design: species or system Charles River CD-1 mice; settings: for Average Days Survival: 31 day experiment
# Description: In vivo antimalarial activity was tested in male or female Charles River CD-1 mice that were 4-5 weeks old and weighed 20-25 g They were housed in groups of 3 or 4 in standard plastic cages with wire tops, Bed-o-cob® bedding, 12 hr/day of light, and maintained at 75° F. They were fed a standard Ralston Purina mouse chow and the cages and bottles were changed twice a week. Test compounds were ground in a mortar and pestle and diluted with enough vehicle to give a volume of 10 mL/kg of mouse weight. The oral doses were prepared in 0.5% hydroxyethylcellulose (Union Carbide Corp. WP 4400)/0.1% Tween-80 (Fisher Scientific T164-500). The amount of drug was calculated on the free base weight. The mice were infected intraperitoneally on day 0 with 5×10^4 erythrocytes parasitized with Plasmodium berghei (KBG-173 strain) from a donor mouse having a parasitemia between 5-10%. On days 3, 4 and 5 the test compounds were administered bid, spaced 6 hr apart, by oral gavage to the mice. Activity was measured by survival, with full activity defined as all animals living at day 31. Partial activity is defined as days of increased survival versus the infected non-treated controls. This in vivo model is a modification of the Thompson Test. For further description see Ager, A. L, Jr. Rodent Malaria Models. In Handbook of Experimental Pharmacology: Antimalarial Drugs. 1. 68/1; Peters, W., Richards, W. H. G., Eds.: Springer-Verlag: Berlin, 1984, pp. 231-33.
# [3] = tested on: P. falciparum strain D6 (sensitive to chloroquine and pyrimethamine); assay: [3H]-hypoxanthine growth inhibition assay, P. falciparum D6; format: cell-based; settings: Plasmodium falciparum
# Description: as §1, §2, §3, §4, §5, §6
# [4] = P. falciparum W2, [3H]-hypoxanthine incorporation, read-out: W2 IC50
# [5] = 4 mg/kg/day, oral bid on days 3, 4 and 5
# [6] = 16 mg/kg/day, oral bid on days 3, 4 and 5
# [7] = Plasmodium berghei, 744 h, 16 mg/kg/day, oral bid on days 3, 4 and 5, read-out: Number of mice alive at day 31 (converted)
# [8] = P. falciparum D6, [3H]-hypoxanthine incorporation, read-out: D6 IC50
# [9] = 64 mg/kg/day, oral bid on days 3, 4 and 5
# [10] = Plasmodium berghei, po, 744 h, read-out: Number of mice alive at day 31
smiles,measurement,setting,value
"CC(C)(C)NCc1cc(C(C)(C)C)cc(-c2ccc(Cl)c(C(F)(F)F)c2)c1O.Cl [Example 23, 5-(tert-Butyl)-3-((tert-butylamino)methyl)-4′-chloro-3′-(trifluoromethyl)-[1,1′-biphenyl]-2-ol hydrochloride]",IC50,[1]; [4],0.009 µM
same,Average Days Survival,"[2]; 1 mg/kg/day, oral bid on days 3, 4 and 5",>15.3 days
same,Average Days Survival,"[2]; 2 mg/kg/day, oral bid on days 3, 4 and 5",>7 days
same,Average Days Survival,[2]; [5],>31* Days
same,Average Days Survival,"[2]; 8 mg/kg/day, oral bid on days 3, 4 and 5",>31* Days
same,Average Days Survival,[2]; [6],>31* Days
same,Average Days Survival,"[2]; 32 mg/kg/day, oral bid on days 3, 4 and 5",>31* Days
same,responders at 1 mg/kg,"[2]; Plasmodium berghei, 744 h, 1 mg/kg/day, oral bid on days 3, 4 and 5, read-out: Number of mice alive at day 31 (converted)",42.9%
same,responders at 2 mg/kg,"[2]; Plasmodium berghei, 744 h, 2 mg/kg/day, oral bid on days 3, 4 and 5, read-out: Number of mice alive at day 31 (converted)",85.7%
same,responders at 4 mg/kg,"[2]; Plasmodium berghei, 744 h, 4 mg/kg/day, oral bid on days 3, 4 and 5, read-out: Number of mice alive at day 31 (converted)",100%
same,responders at 8 mg/kg,"[2]; Plasmodium berghei, 744 h, 8 mg/kg/day, oral bid on days 3, 4 and 5, read-out: Number of mice alive at day 31 (converted)",100%
same,responders at 16 mg/kg,[2]; [7],100%
same,responders at 32 mg/kg,"[2]; Plasmodium berghei, 744 h, 32 mg/kg/day, oral bid on days 3, 4 and 5, read-out: Number of mice alive at day 31 (converted)",100%
same,IC50,[3]; [8],0.021 µM
"CC(C)(C)NCc1cc(-c2ccc(Cl)cc2)nc(-c2ccc(Cl)cc2)c1O.Cl [Example 56, 4-((tert-Butylamino)methyl)-2,6-bis(4-chlorophenyl)pyridin-3-ol hydrochloride]",IC50,[1]; [4],0.012 µM
same,Average Days Survival,[2]; [6],>19.3 days
same,Average Days Survival,[2]; [9],>20 days
same,responders at 16 mg/kg,[2]; [7],71.4%
same,responders at 64 mg/kg,"[2]; Plasmodium berghei, 744 h, 64 mg/kg/day, oral bid on days 3, 4 and 5, read-out: Number of mice alive at day 31 (converted)",85.7%
same,IC50,[3]; [8],0.032 µM
"CCN(CC)CCCC(C)Nc1ccnc2cc(Cl)ccc12 (stereo not drawn) [Chloroquine, chloroquine, reference compound]",IC50,"[1]; W2, read-out: W2 IC50",0.133 µM
same,Average Days Survival,[2]; [5],10.3 days
same,Average Days Survival,[2]; [6],>18.8 days
same,Average Days Survival,[2]; [9],>18.6 days
same,Average Days Survival,"[2]; 128 mg/kg/day, oral bid on days 3, 4 and 5",>21.3 days
same,responders at 4 mg/kg,[2]; [10],0%
same,responders at 16 mg/kg,[2]; [10],14.3%
same,responders at 64 mg/kg,[2]; [10],28.6%
same,responders at 128 mg/kg,[2]; [10],57.1%
same,IC50,"[3]; D6, read-out: D6 IC50",0.012 µM
